Where no end group is shown, it is not given here.
Experiments:
NK-1 receptor [1] = molecular target: T1, NK-1 receptor (Homo sapiens, UniProt P25103); settings: human tissues; cited from earlier work
T1 construct: pA2>6.0 both in murine and human tissues; host or cells: human tissues (not specified)

NK-1 receptor [2] = molecular target: T2, NK-1 receptor (Rattus norvegicus, UniProt P14600); settings: rat tissues; cited from earlier work
T2 construct: pA2>6.0 both in murine and human tissues; host or cells: rat ('murine') tissues (not specified)
T2 sequence (P14600 whole entry): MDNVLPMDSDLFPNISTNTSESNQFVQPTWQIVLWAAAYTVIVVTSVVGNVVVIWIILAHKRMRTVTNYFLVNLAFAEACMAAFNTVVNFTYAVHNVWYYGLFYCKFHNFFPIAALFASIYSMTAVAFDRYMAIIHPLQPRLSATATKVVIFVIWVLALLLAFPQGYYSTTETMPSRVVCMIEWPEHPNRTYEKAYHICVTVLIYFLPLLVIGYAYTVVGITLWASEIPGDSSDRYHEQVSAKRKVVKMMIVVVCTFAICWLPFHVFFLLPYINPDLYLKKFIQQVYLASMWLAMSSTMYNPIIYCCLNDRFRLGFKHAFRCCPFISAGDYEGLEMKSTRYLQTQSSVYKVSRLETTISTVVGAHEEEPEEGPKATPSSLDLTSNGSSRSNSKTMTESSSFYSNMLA

[3] = test system: PC-3 human prostatic cancer cell lines; experiment: Vascular density quantification (CD31 immunohistochemistry) in orthotopic PC-3 prostate tumors in nude mice; assay type: in vivo, male athymic nude mices; settings: compared to control groups (L-703,606 also vs SP treated mice); p<0.05; 1 ng up to 1 mg; three up to 180 days
Procedure: (§1) For this studies has been used male athymic nude mices (Harlan). The mices were housed in laminar flow cabinet under pathogenic free conditions and used at 4-5 weeks of age.
(§2) The PC-3 human prostatic cancer cell lines (ECACC) were mantained in Minimum essential medium (GIBCO BRL) For in vivo studies, tumor cells in exponential growth phase were harvested by a 120 seconds treatment with tripsyn in 0.02% EDTA. After that the cells were resuspended in saline solution. 20 μl (10^5 cells) of saline solution was inoculated in nude mice prostate. The tumors were taken at different times (three up to 180 days) for analysis.
(§3) Animals were divided in groups (10 animals each one) and treated with different solutions:
(§4) physiological solution, -Sustance P (1 ng up to 1 mg), -L-703,606 (1 ng up to 1 mg), −L-703,606+Leuprolide Acetate (using dosages reported in table 1 and 2).
(§5) The treatments were made at different time (one at day until one at week). For different periods of time (three days up to 180 days).
Frozen sections of tumors have been fixed in Acetone, acetone/chloroform, acetone.
The presence of new blood vessels has been highlighted using the Rat anti-Mouse CD31 antibody, a Goat anti-Rat POX as a secondary antibody and DAB as a chromogen substrate. For quantification of blood vessels an image analysis system was employed.

[4] = test system: PC-3 human prostatic cancer cell lines; experiment: Tumoral mass weight of orthotopic PC-3 prostate tumors in nude mice; assay type: in vivo, male athymic nude mices; settings: compared to either control groups or SP treated mice; p<0.05; from 3 up to 180 days
Procedure: as §1, §2, §3, §4, §5
The animals were maitained under observation for three up to 180 days. Autoptic examinations were performed in all animals and the tumoral mass weighed.

T1 sequence (P25103 whole entry): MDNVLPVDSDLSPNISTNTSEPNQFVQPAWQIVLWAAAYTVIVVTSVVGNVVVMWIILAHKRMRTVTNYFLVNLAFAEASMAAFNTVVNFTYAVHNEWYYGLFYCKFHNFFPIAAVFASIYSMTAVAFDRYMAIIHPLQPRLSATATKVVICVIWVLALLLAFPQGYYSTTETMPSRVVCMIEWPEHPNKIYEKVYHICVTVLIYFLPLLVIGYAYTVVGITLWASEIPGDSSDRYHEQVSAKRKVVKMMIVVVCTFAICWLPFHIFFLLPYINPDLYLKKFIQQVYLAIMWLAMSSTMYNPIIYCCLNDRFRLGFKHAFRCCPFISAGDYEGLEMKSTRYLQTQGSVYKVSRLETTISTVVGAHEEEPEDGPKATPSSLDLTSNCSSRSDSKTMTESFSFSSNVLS

Molecule | pA2 human (NK-1 receptor [1]) | pA2 rat (NK-1 receptor [2]) | CD 31 values (blood vessels density) [3] | tumoral mass weight [4]
COc1ccccc1CN[C@H]1C2CCN(CC2)[C@H]1C(c1ccccc1)c1ccccc1 [CP 96345] | 9.5 | 6.8 |  | 
substance P (RPKPQQFFGLM; ends and bridges not checked; UniProt P20366 58-68, looked up) [SP, substance P (SP), plays a role in angiogenesis stimulation] |  |  | statistically significant increase | 
COc1ccccc1CN[C@H]1CCCN[C@H]1c1ccccc1 [CP 99994] | 8.9 | 6.1 |  | 
Cc1ccc(CC(=O)N(C)[C@H](Cc2ccc3ccccc3c2)C(=O)N[C@@H]2CCCC[C@@H]2NC(=O)c2c[nH]c3ccccc23)cc1 [MEN 11467] | >6.0 | >6.0 |  | 
CC(C)Oc1cccc(CC(=O)N2CCC[C@](CC[N+]34CCC(c5ccccc5)(CC3)CC4)(c3ccc(Cl)c(Cl)c3)C2)c1 [SR 140333] | 9.8 | 7.4 |  | 
COc1ccccc1CC(=N)N1C[C@@H]2C(=O)CCC(c3ccccc3)(c3ccccc3)[C@@H]2C1 [RP 67580] | 7.2 | 8.2 |  | 
Cc1cc(C)cc(C(=O)N2CC[C@H](NCCc3ccccc3)C[C@H]2Cc2ccccc2)c1 [CGP 47899] | >6.0 | >6.0 |  | 
Ic1ccccc1CN[C@@H]1C2CCN(CC2)[C@@H]1C(c1ccccc1)c1ccccc1 (racemic) [L-703,606] |  |  | statistically significant reduction | statistically significant reduction
COc1ccc(-n2nnnc2C(F)(F)F)cc1CN[C@H]1CCCN[C@H]1c1ccccc1 [GR 205171] | >6.0 | >6.0 |  | 
CN(Cc1ccccc1)C(=O)[C@H](Cc1ccc2ccccc2c1)NC(=O)[C@@H]1C[C@@H](O)CN1C(=O)c1cn(C)c2ccccc12 [FK 888] | 9.1 | 6.0 |  | 
